From ChEMBL document CHEMBL1152510, “Melanogenesis inhibitors from the rhizomes of Alpinia officinarum in B16 melanoma cells” (Bioorg Med Chem, 2009)
Calls of active or inactive are those of the source. No cut-off for these calls is given here.

Assays:
[1] = molecular target: T1, Tyrosinase (Agaricus bisporus) (UniProt O42713); assay: Inhibition of mushroom tyrosinase at 1 uM
T1 sequence (whole entry): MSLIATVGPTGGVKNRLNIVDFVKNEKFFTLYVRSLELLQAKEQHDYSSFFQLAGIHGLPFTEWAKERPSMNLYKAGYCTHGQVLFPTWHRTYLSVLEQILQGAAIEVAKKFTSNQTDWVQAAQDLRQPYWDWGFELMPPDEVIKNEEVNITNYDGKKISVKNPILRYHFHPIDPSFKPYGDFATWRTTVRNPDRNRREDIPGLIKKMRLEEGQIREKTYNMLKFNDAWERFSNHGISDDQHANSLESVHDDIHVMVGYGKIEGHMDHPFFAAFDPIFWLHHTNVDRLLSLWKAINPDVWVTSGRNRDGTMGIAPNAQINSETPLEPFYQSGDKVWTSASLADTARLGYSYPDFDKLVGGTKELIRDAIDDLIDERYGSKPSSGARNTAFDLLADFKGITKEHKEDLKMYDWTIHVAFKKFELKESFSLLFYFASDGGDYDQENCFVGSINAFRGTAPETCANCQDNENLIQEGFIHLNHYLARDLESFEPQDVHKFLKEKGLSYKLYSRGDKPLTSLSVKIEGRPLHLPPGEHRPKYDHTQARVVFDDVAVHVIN

[2] = molecular target: T1, Tyrosinase (Agaricus bisporus); assay: Inhibition of mushroom tyrosinase at 3 uM
[3] = molecular target: T2, Tyrosinase (Agaricus bisporus, UniProt O42713)
T2 sequence (O42713 whole entry): T1 sequence (whole entry)

[4] = cells; details: Mus musculus, B16-4A5, 72 h, read-out: INH
Description: Inhibition of melanogenesis in theophylline-stimulated mouse B16-4A5 cells at 1 uM after 72 hrs

[5] = cells; details: Mus musculus, B16-4A5, 72 h, read-out: INH; remark: listed apart in the source
Description: Inhibition of melanogenesis in theophylline-stimulated mouse B16-4A5 cells at 3 uM after 72 hrs

[6] = cells; details: Mus musculus, B16-4A5, 72 h, read-out: INH; remark: listed apart in the source
Description: Inhibition of melanogenesis in theophylline-stimulated mouse B16-4A5 cells at 10 uM after 72 hrs

[7] = cells; details: Mus musculus, B16-4A5, 72 h, read-out: INH; remark: listed apart in the source
Description: Inhibition of melanogenesis in theophylline-stimulated mouse B16-4A5 cells at 30 uM after 72 hrs

[8] = cells; details: Mus musculus, B16-4A5, 72 h, read-out: INH; remark: listed apart in the source
Description: Inhibition of melanogenesis in theophylline-stimulated mouse B16-4A5 cells at 100 uM after 72 hrs

[9] = system: B16; assay: cells; details: Mus musculus, B16, 72 h
Description: Inhibition of melanogenesis in theophylline-stimulated mouse B16-4A5 cells after 72 hrs

[10] = cells; details: Mus musculus, B16-4A5, 68 h, read-out: INH
Description: Inhibition of theophylline-stimulated mouse B16-4A5 cell proliferation assessed as cell viability at 1 uM after 68 hrs by WST8 assay

[11] = cells; details: Mus musculus, B16-4A5, 68 h, read-out: INH; remark: listed apart in the source
Description: Inhibition of theophylline-stimulated mouse B16-4A5 cell proliferation assessed as cell viability at 3 uM after 68 hrs by WST8 assay

[12] = cells; details: Mus musculus, B16-4A5, 68 h, read-out: INH; remark: listed apart in the source
Description: Inhibition of theophylline-stimulated mouse B16-4A5 cell proliferation assessed as cell viability at 10 uM after 68 hrs by WST8 assay

[13] = cells; details: Mus musculus, B16-4A5, 68 h, read-out: INH; remark: listed apart in the source
Description: Inhibition of theophylline-stimulated mouse B16-4A5 cell proliferation assessed as cell viability at 30 uM after 68 hrs by WST8 assay

[14] = cells; details: Mus musculus, B16-4A5, 68 h, read-out: INH; remark: listed apart in the source
Description: Inhibition of theophylline-stimulated mouse B16-4A5 cell proliferation assessed as cell viability at 100 uM after 68 hrs by WST8 assay

[15] = cells; details: Mus musculus, B16-4A5, 68 h
Description: Inhibition of theophylline-stimulated mouse B16-4A5 cell proliferation assessed as cell viability after 68 hrs by WST8 assay

[16] = system: B16-4A5; assay: Inhibition of tyrosinase mRNA expression in theophylline-stimulated mouse B16-4A5 cells at 1 to 30 uM after 72 hrs; assay type: functional, cell-based
[17] = system: B16-4A5; assay: Inhibition of TRP1 mRNA expression in theophylline-stimulated mouse B16-4A5 cells at 1 to 30 uM after 72 hrs; assay type: functional, cell-based
[18] = system: B16-4A5; assay: Inhibition of TRP2 mRNA expression in theophylline-stimulated mouse B16-4A5 cells at 1 to 30 uM after 72 hrs; assay type: functional, cell-based
[19] = system: B16-4A5; assay: Inhibition of microphthalmia-associated transcriptional factor level in theophylline-stimulated mouse B16-4A5 cells at 1 to 30 uM after 24 hrs; assay type: functional, cell-based
[20] = system: B16-4A5; assay: Inhibition of microphthalmia-associated transcriptional factor level in theophylline-stimulated mouse B16-4A5 cells at 1 to 30 uM after 48 hrs; assay type: functional, cell-based
[21] = Inhibition of melanogenesis in theophylline-stimulated mouse B16-4A5 cells at 300 uM after 72 hrs; assay type: functional; details: B16-4A5, 72 h
[22] = Inhibition of melanogenesis in theophylline-stimulated mouse B16-4A5 cells at 1000 uM after 72 hrs; assay type: functional; details: B16-4A5, 72 h
[23] = Inhibition of theophylline-stimulated mouse B16-4A5 cell proliferation assessed as cell viability at 300 uM after 68 hrs by WST8 assay; assay type: functional; details: B16-4A5, 68 h
[24] = Inhibition of theophylline-stimulated mouse B16-4A5 cell proliferation assessed as cell viability at 1000 uM after 68 hrs by WST8 assay; assay type: functional; details: B16-4A5, 68 h

| SMILES | inhibition [1] | inhibition [2] | IC50 [3] | IC50 [9] | IC50 [15] | inhibition at 1 µM [4] | inhibition at 3 µM [5] | inhibition at 10 µM [6] | inhibition at 30 µM [7] | inhibition at 100 µM [8] | inhibition at 1 µM [10] | inhibition at 3 µM [11] | inhibition at 10 µM [12] | inhibition at 30 µM [13] | inhibition at 100 µM [14] | also measured |
| --- | --- | --- | --- | --- | --- | --- | --- | --- | --- | --- | --- | --- | --- | --- | --- | --- |
| O=C(CCc1ccccc1)C[C@H](O)CCc1ccccc1 | 3.3% | 2.5% | > 100 µM | 48 µM | > 100 µM | -3.3% | 6.8% | 10.6% | 33% | 67.8% | 0% | 0.7% | -4.7% | -7.6% | -7.6% |  |
| COc1cc(CC/C=C/C(=O)CCc2ccccc2)ccc1O | 3.2% | 3% | > 100 µM | 10 µM | 60 µM | 11.6% | 22.5% | 49.3% | 80.1% |  | 3.2% | 3.8% | 5.1% | 2.6% | 90.6% | Activity [16]: Active; Activity [17]: Active; Activity [18]: Active; Activity [19]: inactive; Activity [20]: Active |
| COc1cc(CC[C@@H](O)CC(=O)CCc2ccccc2)ccc1O | 2.3% | 4.7% | > 100 µM | 30 µM | > 100 µM | 7.5% | 8.9% | 23.4% | 49.2% | 81.1% | 5.3% | 11.7% | 11.8% | 15.1% | 20.8% |  |
| O[C@H](CCc1ccccc1)C[C@H](O)CCc1ccccc1 | 2.7% | 4.6% | > 100 µM | 33 µM | 60 µM | 10.4% | 11.1% | 7.2% | 48.1% |  | 1.1% | -0.5% | 1.6% | -2.3% | 90.2% |  |
| OC[C@H]1O[C@@H](Oc2ccc(O)cc2)[C@H](O)[C@@H](O)[C@@H]1O [ARBUTIN] |  |  |  | 116 µM | > 1000 µM |  |  | 6.7% | 17.8% | 46.9% |  |  | 8.7% | 17.6% | 21.9% | inhibition at 300 µM [21]: 71%; inhibition at 1000 µM [22]: 88.7%; inhibition at 300 µM [23]: 20.2%; inhibition at 1000 µM [24]: 46.9% |

Second part, led by results:

| inhibition [1] | inhibition [2] | IC50 [3] | IC50 [9] | IC50 [15] | SMILES | inhibition at 1 µM [4] | inhibition at 3 µM [5] | inhibition at 10 µM [6] | inhibition at 30 µM [7] | inhibition at 100 µM [8] | inhibition at 1 µM [10] | inhibition at 3 µM [11] | inhibition at 10 µM [12] | inhibition at 30 µM [13] | inhibition at 100 µM [14] | also measured |
| --- | --- | --- | --- | --- | --- | --- | --- | --- | --- | --- | --- | --- | --- | --- | --- | --- |
| 6% | 4.4% | > 100 µM | 84 µM | > 100 µM | O=C1c2c(O)cc(O)cc2O[C@H](c2ccc(O)cc2)[C@H]1O [DIHYDROKAEMPFEROL] | 8.7% | 1.2% | 12.7% | 20.5% | 56% | 0.2% | 5.9% | 13.8% | 23.9% | 30.5% |  |
| 28% | 26.6% | > 100 µM | 17 µM | 100 µM | O=c1c(O)c(-c2ccccc2)oc2cc(O)cc(O)c12 [GALANGIN] | -0.5% | -5.3% | 43.4% | 87.1% |  | 1.7% | 7.1% | 11.4% | 12.7% | 53.3% | Activity [16]: Active; Activity [17]: Active; Activity [18]: Active; Activity [19]: inactive; Activity [20]: Active |
| -1.7% | -0.2% | > 100 µM | 16 µM | > 100 µM | COc1ccc(-c2oc3cc(O)cc(O)c3c(=O)c2O)cc1 [KAEMPFERIDE] | 0% | 5.9% | 39.9% | 81.2% | 78.4% | -2% | 3.1% | 7.9% | 7.4% | 11.2% | Activity [16]: Active; Activity [17]: Active; Activity [18]: Active; Activity [19]: inactive; Activity [20]: Active |
| 5.7% | 7.6% | > 100 µM | 20 µM | 88 µM | O=c1c(O)c(-c2ccc(O)cc2)oc2cc(O)cc(O)c12 [KAEMPFEROL] | 8.3% | 9.9% | 23.4% | 61.1% |  | 5.6% | 18.1% | 23.5% | 26.1% | 56% |  |
| 3.8% | 5.3% | > 100 µM | > 100 µM | > 100 µM | O=C(O)CCc1ccccc1 [PHENYL PROPIONIC ACID] | 0.1% | 6.3% | 3.8% | 16.9% | 20.9% | -1.4% | -2.8% | 1.2% | 1.3% | 2.9% |  |
| 1.8% | 2.8% | > 100 µM | > 100 µM | > 100 µM | O=C1c2c(O)cc(O)cc2O[C@H](c2ccccc2)[C@H]1O [PINOBAKSIN] |  | -5.8% | 10.8% | 16.9% | 47.7% | 2.2% | 3.6% | 7% | 7.1% | 6.9% |  |
| 1.4% | 2.1% | > 100 µM | > 100 µM | > 100 µM | COc1cc(CCC(C)=O)ccc1O [ZINGERONE] | 7.6% | 3.7% | 6.1% | 8.3% | 15.5% | -0.5% | -2.8% | -8% | -8.8% | -6.1% |  |
